# Reference: patent US20070161550A1, “Antiviral compositions which inhibit paramyxovirus infection” (priority 2003, published 2007)
# B1: met-CCL5: CCL5 of SEQ ID NO:1 with a methionine NH2-terminal to Ser1; inactive as chemokine agonist (protein, listed as Homo sapiens)
# chain: MSPYSSDTTPCCFAYIARPLPRAHIKEYFYTSGKCSNPAVVFVTRKNRQVCANPEKKWVREYINSLEMS
# modifications: N-terminal methionine
# How the values were obtained:
# RSV = test: Inhibition of RSV infection of A549 monolayers; assay type: cell-based, respiratory syncytial virus (RSV); settings: prior treatment of A549 monolayers; data not shown
# HEp-2 cells = test: Binding of biotinylated CCL5 peptides to HEp-2 cell monolayers (ELISA); parameters: species or system human; settings: FIG. 3, viable HEp-2 cells at 4° C.
# Protocol: Interaction of CCL5 peptides with HEp-2 cells. An ELISA was used to assess the relative binding of synthetic peptides to HEp-2 cell monolayers. In brief, 96-well plates (Falcon) were seeded with 3×10^4 HEp-2 cells per well in 0.2 ml of complete medium. After overnight incubation (37° C., 5% CO2), the monolayers were cooled on ice for approximately 15 minutes. The biotinylated peptides were added to duplicate wells in ascending doses from 0.49 μg to 500 μg per ml DMEM (supplemented with 1% FBS, 2% penicillin/streptomycin, and 2 mM L-glutamine) and incubated at 4° C. for 1 hour. The monolayers were then fixed (20 minutes at RT) with 80% methanol (J T Baker; Phillipsburg, N.J.). […] Thereafter, the monolayers were incubated (1 hour at RT) with streptavidin-HRP (Zymed; San Francisco, Calif.). The wells were developed with TMB One-Step Substrate Solution (DAKO; Carpinteria, Calif.). Optical density was determined (450 nm, reference at 550 nm) with a Molecular Devices Versamax microplate reader (Sunnyvale, Calif.).
# RSV A2 = test: Inhibition of RSV infectivity in vitro, plaque assay on HEp-2 cell monolayers; assay type: cell-based, respiratory syncytial virus (RSV)
# Protocol: (§1) Inhibition of virus infectivity in vitro. HEp-2 cell monolayers were grown in 96-well tissue culture plates (Falcon, Becton Dickson and Co.; Franklin Lakes, N.J.) with complete medium. The monolayers were pre-treated for 1 hour at 4° C. or 37° C. in triplicate wells with the indicated amounts of recombinant chemokine or anti-chemokine receptor antibody. After removal of chemokine or antibody, the monolayers were infected 1 hour at the same temperature with the denoted wild type or mutant RSV strain and then overlaid with 2% Sephadex (Amersham Biosciences; Piscataway, N.J.). Anti-viral activity was also assessed 1 hour after the cells were infected, or following simultaneous exposure of the monolayers to virus in a 1:1 mixture with the indicated doses of chemokines or CCL5 peptides. The inhibitory properties of the anti-chemokine receptor antibodies were tested alone or in combination at doses ranging from 5 to 100 μg/ml culture medium.
# Plaque assay. Virus plaques were visualized as previously described (Hancock et al. 1996) using anti-F protein (L4) mAb (Paradiso et al., 1991; Walsh and Hruska, 1983). Thereafter, cells were rinsed with blotto blocking agent (PBS, 5% powdered milk) and incubated with horseradish peroxidase-conjugated goat anti-mouse IgG (Kirkegaard and Perry Laboratories, Inc.; Gaithersburg, Md.). Bound antibody was detected using 0.05% 4-chloro-1-naphtol containing 0.1% H2O2 in PBS. After enumeration of plaques, the mean percent infectivity (±1 standard deviation of triplicate wells) was calculated relative to monolayers exposed to virus in culture medium alone without chemokine or anti-chemokine receptor antibody.
# cp-RSV = test: Inhibition of infectivity of cp-RSV, HEp-2 plaque assay; assay type: cell-based, respiratory syncytial virus (RSV); settings: Table 15 Experiment 1; strain cp-RSV; 10 μg/ml, treated 1 h before infection
# Protocol: as §1
# (§2) Plaque assay. […] Bound antibody was detected using 0.05% 4-chloro-1-naphtol containing 0.1% H2O2 in PBS. After enumeration of plaques, the mean percent infectivity (±1 standard deviation of triplicate wells) was calculated relative to monolayers exposed to virus in culture medium alone without chemokine or anti-chemokine receptor antibody.
# rA2cpΔ118 = test: Inhibition of infectivity of RSV with truncated G protein, HEp-2 plaque assay; assay type: cell-based, respiratory syncytial virus (RSV); settings: Table 15 Experiment 1; strain rA2cpΔ118; 10 μg/ml, treated 1 h before infection; 5 days
# Protocol: (§3) Virus stocks. Wild type RSV strains A2 and B1 (Wright et al., 1973) and mutant RSV strains cpts248/404 (Ackerlind et al., 1988), rA2 cpts248/404ASH (Crowe et al., 1994) and cp32/D1, deficient in SH and G genes (nucleotides 4064-5462) (Karron et al., 1997), were propagated as previously described (Hancock et al., 1996) in HEp-2 cells (ATCC CCL 23) cultured in complete medium (DMEM supplemented with 2 mM L-glutamine, 2% penicillin/streptomycin and 10% (V/V) FBS, 37° C., 5% CO2). The cp32/D1 mutant was isolated from the B1 strain using methodologies previously described for cp52 (Crowe et al., 1996; Karron et al., 1997). A recombinant RSV, (rA2 cpΔG118) genetically truncated at amino acid 117 of G protein was also used in the investigation. […]
# (§4) Inhibition of virus infectivity in vitro. […] Anti-viral activity was also assessed 1 hour after the cells were infected, or following simultaneous exposure of the monolayers to virus in a 1:1 mixture with the indicated doses of chemokines or CCL5 peptides. […]
# as §2, with “antibody. […]” for “antibody.”
# cp32/D1 = test: Inhibition of infectivity of mutant RSV strain lacking SH and G proteins, HEp-2 plaque assay; assay type: cell-based, respiratory syncytial virus (RSV); settings: Table 15 Experiment 2, 10 μg/ml, treated 1 h before infection, 5 days
# Protocol: as §3, §4
# as §2, with “antibody. […]” for “antibody.”
# RSV B1 = test: Inhibition of infectivity of wild type RSV B1, HEp-2 plaque assay; assay type: cell-based, respiratory syncytial virus (RSV); settings: Table 15 Experiment 2; strain B1; 10 μg/ml, treated 1 h before infection; 5 days
# Protocol: as §3, §4, §2
# rA2 cpts248/404ΔSH = test: Inhibition of infectivity of mutant RSV strain lacking SH protein, HEp-2 plaque assay; assay type: cell-based, respiratory syncytial virus (RSV); settings: strain 248/404ΔSH, 10 μg/ml, treated 1 h before infection, 5 days
# Protocol: (§5) Virus stocks. Wild type RSV strains A2 and B1 (Wright et al., 1973) and mutant RSV strains cpts248/404 (Ackerlind et al., 1988), rA2 cpts248/404ASH (Crowe et al., 1994) and cp32/D1, deficient in SH and G genes (nucleotides 4064-5462) (Karron et al., 1997), were propagated as previously described (Hancock et al., 1996) in HEp-2 cells (ATCC CCL 23) cultured in complete medium (DMEM supplemented with 2 mM L-glutamine, 2% penicillin/streptomycin and 10% (V/V) FBS, 37° C., 5% CO2). The cp32/D1 mutant was isolated from the B1 strain using methodologies previously described for cp52 (Crowe et al., 1996; Karron et al., 1997). A recombinant RSV, (rA2 cpΔG118) genetically truncated at amino acid 117 of G protein was also used in the investigation. All virus stocks were prepared from cell lysates clarified by low speed (200 g) centrifugation 15 minutes at 4° C.
# as §1, with “The inhibitory properties of the anti-chemokine receptor antibodies were tested alone or in combination at doses ranging from 5 to 100 μg/ml culture medium.” left out
# as §2, with “antibody. […]” for “antibody.”
# cpts248/404 = test: Inhibition of infectivity of mutant RSV strain 248/404, HEp-2 plaque assay; assay type: cell-based, respiratory syncytial virus (RSV); settings: treated 1 h before infection, 5 days
# Protocol: as §5
# as §1, with “The inhibitory properties of the anti-chemokine receptor antibodies were tested alone or in combination at doses ranging from 5 to 100 μg/ml culture medium.” left out
# as §2
# chemotaxis = settings: cited from earlier work
# [1] = Table 15 Experiment 1, strain A2, 10 μg/ml, treated 1 h before infection, 3 days
# [2] = Table 15 Experiment 1, 10 μg/ml
molecule,measurement,setting,value
"CCL5: recombinant human chemokine CCL5 (RANTES), full length polypeptide of SEQ ID NO:1",inhibition of infection with RSV (in words),RSV,inhibited infection with RSV
same,binding to the epithelial cell monolayer (in words),HEp-2 cells,readily bound to the epithelial cell monolayer
same,Percent Infectivity,"RSV A2; Table 10, 1 μg/ml, exposed 1 hour before infection, plaques after 3 days",73.6 ± 20.6%
same,Percent Infectivity,"RSV A2; Table 10, 5 μg/ml, exposed 1 hour before infection, plaques after 3 days",25.0 ± 7.2%
same,Percent Infectivity,"RSV A2; Table 10, 10 μg/ml, exposed 1 hour before infection, plaques after 3 days, relative to control wells (100%)",29.2 ± 16.7%
same,Percent Infectivity,"RSV A2; Table 10, 10 μg/ml, exposed 1 hour before infection, plaques after 3 days, relative to control wells (100%), listed as rCCL5",approximately 30%
same,Percent Infectivity,"RSV A2; Table 11, 1 μg/ml, exposed 1 hour before infection, plaques after 3 days",101.0 ± 4.0%
same,Percent Infectivity,"RSV A2; Table 11, 5 μg/ml, exposed 1 hour before infection, plaques after 3 days",42.0 ± 3.0%
same,Percent Infectivity,"RSV A2; Table 11, 10 μg/ml, exposed 1 hour before infection, plaques after 3 days",16.0 ± 8.0%
same,Percent Infectivity,"RSV A2; Table 11, 10 μg/ml, exposed 1 hour before infection, plaques after 3 days, listed as rCCL5",~20%
same,Percent Infectivity,"RSV A2; Table 12, 10 μg/ml, 1 hour after removal of RSV A2 (POST)",101 ± 12%
same,Percent Infectivity,"RSV A2; Table 12, 10 μg/ml, 1 hour prior to infection (PRE)",22 ± 11%
same,Percent Infectivity,"RSV A2; Table 13, 10 μg/ml, 1 hour prior to infection (PRE)",17
same,Percent Infectivity,"RSV A2; Table 13, 10 μg/ml, CCL5 denatured by heat (HEAT)",75
same,Percent Infectivity,"RSV A2; Table 13, 10 μg/ml, simultaneously admixed with RSV (SIM)",33
same,Percent Infectivity,"RSV A2; Table 14, 5 μg, pre-treated 1 hour at 4° C.",37%
same,Percent Infectivity,"RSV A2; Table 14, 5 μg, pre-treated 1 hour at 37° C.",41%
same,Percent Infectivity,"RSV A2; Table 14, 10 μg, pre-treated 1 hour at 4° C.",23%
same,Percent Infectivity,"RSV A2; Table 14, 10 μg, pre-treated 1 hour at 37° C.",4%
same,Percent Infectivity,"RSV A2; Table 14, 20 μg, pre-treated 1 hour at 4° C.",14%
same,Percent Infectivity,"RSV A2; Table 14, 20 μg, pre-treated 1 hour at 4° C., listed as rCCL5",approximately 14%
same,Percent Infectivity,"RSV A2; Table 14, 20 μg, pre-treated 1 hour at 37° C.",16%
same,Percent Infectivity,RSV A2; [1],33%
same,Percent Infectivity,"RSV A2; Table 15 Experiment 2, strain A2, 10 μg/ml, treated 1 h before infection, 3 days",28%
same,IC50,"RSV A2; prior exposure (1 hour) of HEp-2 cell monolayers, read-out: median inhibitory concentration (IC50)",726 nM
same,Percent Infectivity,cp-RSV,64%
same,Percent Infectivity,rA2cpΔ118,26%
same,Percent Infectivity,cp32/D1,41%
same,Percent Infectivity,RSV B1,24%
same,Percent Infectivity,rA2 cpts248/404ΔSH; Table 15 Experiment 1,34%
same,Percent Infectivity,rA2 cpts248/404ΔSH; Table 15 Experiment 2,13%
same,Percent Infectivity,cpts248/404; [2],28%
same,Percent Infectivity,"cpts248/404; Table 15 Experiment 2, 10 μg/ml",25%
"Ac-YFYEKIHARPLPRAIYAFC-NH2 [SEQ ID NO:19, retroinverted peptide of CCL5 residues 11-29 in reverse order]",effect on chemotaxis (in words),chemotaxis,antagonized chemotaxis
B1,"infectivity, percent of control cells","RSV A2; FIG. 1, 1.25 μg met-CCL5/ml, prior treatment",approximately 80%
same,"infectivity, percent of control cells","RSV A2; FIG. 1, 20 μg met-CCL5/ml, pre-treated one hour before infection",approximately 25%
same,inhibition of infectivity (in words),"RSV A2; FIG. 1, doses of 0.313 or 0.156 μg met-CCL5/ml",not inhibitory
same,Percent Infectivity,RSV A2; [1],31%
same,Percent Infectivity,cp-RSV,64%
same,Percent Infectivity,rA2cpΔ118,41%
same,Percent Infectivity,rA2 cpts248/404ΔSH; Table 15 Experiment 1,32%
same,Percent Infectivity,cpts248/404; [2],26%
